From the CheMixHub viscosity set

Assay: xn = mol fraction of the nth substance listed

O=C1CCCCC1 + CC(C)CC(C)(C)C
viscosity [mPa·s]
Details | 293.15 K | 298.15 K | 303.15 K | 308.15 K | 313.15 K
101 kPa, x1 = 0.0911 | 0.5562 | 0.5245 | 0.497 | 0.4702 | 0.4465
101 kPa, x1 = 0.127 | – | 0.551 | – | – | –
101 kPa, x1 = 0.1761 | 0.6094 | 0.5717 | 0.5392 | 0.5101 | 0.4831
101 kPa, x1 = 0.1855 | – | 0.575 | – | – | –
101 kPa, x1 = 0.3071 | – | 0.643 | – | – | –
101 kPa, x1 = 0.3304 | 0.7148 | 0.6685 | 0.6303 | 0.5925 | 0.5593
101 kPa, x1 = 0.4005 | 0.7809 | 0.729 | 0.6869 | 0.643 | 0.6047
101 kPa, x1 = 0.4354 | – | 0.741 | – | – | –
101 kPa, x1 = 0.5171 | – | 0.836 | – | – | –
101 kPa, x1 = 0.5288 | 0.9379 | 0.8709 | 0.8135 | 0.7598 | 0.7134
101 kPa, x1 = 0.5877 | 1.037 | 0.9596 | 0.8935 | 0.8326 | 0.7791
101 kPa, x1 = 0.6149 | – | 0.969 | – | – | –
101 kPa, x1 = 0.6961 | 1.231 | 1.132 | 1.046 | 0.969 | 0.9139
101 kPa, x1 = 0.7054 | – | 1.114 | – | – | –
101 kPa, x1 = 0.7937 | 1.479 | 1.353 | 1.248 | 1.152 | 1.07
101 kPa, x1 = 0.7982 | – | 1.317 | – | – | –
101 kPa, x1 = 0.8836 | – | 1.526 | – | – | –
101 kPa, x1 = 0.9232 | 1.947 | 1.771 | 1.628 | 1.49 | 1.368
101.33 kPa, x1 = 0.103 | – | 0.514 | 0.485 | 0.458 | –
101.33 kPa, x1 = 0.2023 | – | 0.563 | 0.53 | 0.501 | –
101.33 kPa, x1 = 0.3 | – | 0.626 | 0.589 | 0.556 | –
101.33 kPa, x1 = 0.4044 | – | 0.717 | 0.667 | 0.623 | –
101.33 kPa, x1 = 0.5041 | – | 0.808 | 0.751 | 0.702 | –
101.33 kPa, x1 = 0.6035 | – | 0.932 | 0.865 | 0.805 | –
101.33 kPa, x1 = 0.7029 | – | 1.104 | 1.016 | 0.953 | –
101.33 kPa, x1 = 0.8014 | – | 1.309 | 1.199 | 1.106 | –
101.33 kPa, x1 = 0.9008 | – | 1.58 | 1.44 | 1.322 | –

O=C1CCCCC1 + CCC(C)=O
298.15 K, 101 kPa
Details | viscosity [mPa·s]
x1 = 0.0755 | 0.45
x1 = 0.1552 | 0.523
x1 = 0.2395 | 0.576
x1 = 0.3288 | 0.655
x1 = 0.4235 | 0.739
x1 = 0.5243 | 0.868
x1 = 0.6316 | 1.03
x1 = 0.7461 | 1.258
x1 = 0.8686 | 1.587

CCCCCCO + c1ccccc1
Details | viscosity [mPa·s]
293.15 K, 100 kPa, x2 = 0.0814 | 4.394
293.15 K, 100 kPa, x2 = 0.1623 | 3.612
293.15 K, 100 kPa, x2 = 0.2401 | 3.045
293.15 K, 100 kPa, x2 = 0.3536 | 2.371
293.15 K, 100 kPa, x2 = 0.4411 | 1.932
293.15 K, 100 kPa, x2 = 0.5516 | 1.507
293.15 K, 100 kPa, x2 = 0.6465 | 1.218
293.15 K, 100 kPa, x2 = 0.7441 | 0.979
293.15 K, 100 kPa, x2 = 0.8425 | 0.828
293.15 K, 100 kPa, x2 = 0.9324 | 0.728
298.15 K, 101 kPa, x1 = 0.04 | 0.615
298.15 K, 101 kPa, x1 = 0.078 | 0.633
298.15 K, 101 kPa, x1 = 0.12 | 0.663
298.15 K, 101 kPa, x1 = 0.16 | 0.709
298.15 K, 101 kPa, x1 = 0.34 | 0.98
298.15 K, 101 kPa, x1 = 0.43 | 1.195
298.15 K, 101 kPa, x1 = 0.53 | 1.505
298.15 K, 101 kPa, x1 = 0.75 | 2.444
303 K, 101.33 kPa, x1 = 0.1001 | 0.6115
303 K, 101.33 kPa, x1 = 0.2002 | 0.7018
303 K, 101.33 kPa, x1 = 0.3 | 0.8271
303 K, 101.33 kPa, x1 = 0.4002 | 0.9916
303 K, 101.33 kPa, x1 = 0.5004 | 1.198
303 K, 101.33 kPa, x1 = 0.6012 | 1.498
303 K, 101.33 kPa, x1 = 0.6985 | 1.883
303 K, 101.33 kPa, x1 = 0.8 | 2.387
303 K, 101.33 kPa, x1 = 0.8982 | 2.971
303.15 K, 100 kPa, x2 = 0.0814 | 3.292
303.15 K, 100 kPa, x2 = 0.1623 | 2.773
303.15 K, 100 kPa, x2 = 0.2401 | 2.333
303.15 K, 100 kPa, x2 = 0.3536 | 1.832
303.15 K, 100 kPa, x2 = 0.4411 | 1.514
303.15 K, 100 kPa, x2 = 0.5516 | 1.175
303.15 K, 100 kPa, x2 = 0.6465 | 0.951
303.15 K, 100 kPa, x2 = 0.7441 | 0.797
303.15 K, 100 kPa, x2 = 0.8425 | 0.684
303.15 K, 100 kPa, x2 = 0.9324 | 0.604
313 K, 101.33 kPa, x1 = 0.1001 | 0.5329
313 K, 101.33 kPa, x1 = 0.2002 | 0.6064
313 K, 101.33 kPa, x1 = 0.3 | 0.7078
313 K, 101.33 kPa, x1 = 0.4002 | 0.8581
313 K, 101.33 kPa, x1 = 0.5004 | 0.9873
313 K, 101.33 kPa, x1 = 0.6012 | 1.194
313 K, 101.33 kPa, x1 = 0.6985 | 1.49
313 K, 101.33 kPa, x1 = 0.8 | 1.852
313 K, 101.33 kPa, x1 = 0.8982 | 2.274
313.15 K, 100 kPa, x2 = 0.0814 | 2.463
313.15 K, 100 kPa, x2 = 0.1623 | 2.077
313.15 K, 100 kPa, x2 = 0.2401 | 1.772
313.15 K, 100 kPa, x2 = 0.3536 | 1.428
313.15 K, 100 kPa, x2 = 0.4411 | 1.201
313.15 K, 100 kPa, x2 = 0.5516 | 0.954
313.15 K, 100 kPa, x2 = 0.6465 | 0.789
313.15 K, 100 kPa, x2 = 0.7441 | 0.661
313.15 K, 100 kPa, x2 = 0.8425 | 0.581
313.15 K, 100 kPa, x2 = 0.9324 | 0.525
323 K, 101.33 kPa, x1 = 0.1001 | 0.4717
323 K, 101.33 kPa, x1 = 0.2002 | 0.53
323 K, 101.33 kPa, x1 = 0.3 | 0.613
323 K, 101.33 kPa, x1 = 0.4002 | 0.7007
323 K, 101.33 kPa, x1 = 0.5004 | 0.8259
323 K, 101.33 kPa, x1 = 0.6012 | 0.9863
323 K, 101.33 kPa, x1 = 0.6985 | 1.209
323 K, 101.33 kPa, x1 = 0.8 | 1.467
323 K, 101.33 kPa, x1 = 0.8982 | 1.768
323.15 K, 100 kPa, x2 = 0.0814 | 1.934
323.15 K, 100 kPa, x2 = 0.1623 | 1.654
323.15 K, 100 kPa, x2 = 0.2401 | 1.411
323.15 K, 100 kPa, x2 = 0.3536 | 1.135
323.15 K, 100 kPa, x2 = 0.4411 | 0.962
323.15 K, 100 kPa, x2 = 0.5516 | 0.781
323.15 K, 100 kPa, x2 = 0.6465 | 0.656
323.15 K, 100 kPa, x2 = 0.7441 | 0.568
323.15 K, 100 kPa, x2 = 0.8425 | 0.5
323.15 K, 100 kPa, x2 = 0.9324 | 0.458

CCOCC + ClCCl
298.15 K, 101 kPa
Details | viscosity [mPa·s]
x1 = 0.113 | 0.4351
x1 = 0.2227 | 0.4106
x1 = 0.3294 | 0.3839
x1 = 0.4331 | 0.3585
x1 = 0.5341 | 0.3342
x1 = 0.6322 | 0.3106
x1 = 0.7278 | 0.289
x1 = 0.8209 | 0.2687
x1 = 0.9116 | 0.2496
